Laboratory results as given in ChEMBL document CHEMBL5113480, “Discovery of novel biphenyl-substituted pyridone derivatives as potent non-nucleoside reverse transcriptase inhibitors with promising oral bioavailability” (Eur J Med Chem, 2022).
pEC50, pIC50: −log10 of the molar value.

Key:
[1] = system: Human immunodeficiency virus 1; assay: Antiviral activity against HIV-1 K103N-Y181C mutant infected in human MT4 cells assessed as reduction in viral replication by MTT assay; type: functional, organism-based; details: Human immunodeficiency virus 1, K103N-Y181C mutant
[2] = Selectivity index, ratio of CC50 for cytotoxicity against human MT4 cells to EC50 of Anti-HIV activity against HIV-1 IIIB infected in human MT4 cells; type: toxicity, cell-based; details: read-out: Ratio CC50/EC50
[3] = Cytotoxicity against human MT4 cells assessed as reduction on cell growth by MTT assay; type: toxicity, cell-based
[4] = system: Human immunodeficiency virus 1; assay: Antiviral activity against HIV-1 F227L-V106A mutant infected in human MT4 cells assessed as reduction in viral replication by MTT assay; type: functional, organism-based; details: Human immunodeficiency virus 1, F227L-V106A mutant
[5] = system: Human immunodeficiency virus 1; assay: Antiviral activity against HIV-1 IIIB infected in human MT4 cells assessed as reduction in viral replication by MTT assay; type: functional, organism-based; details: Human immunodeficiency virus 1, IIIB
[6] = molecular target: Human immunodeficiency virus type 1 reverse transcriptase (Human immunodeficiency virus 1, UniProt Q72547); assay: Inhibition of wild type HIV-1 Reverse transcriptase
[7] = system: Human immunodeficiency virus 1; assay: Antiviral activity against HIV-1 E138K mutant infected in human MT4 cells assessed as reduction in viral replication by MTT assay; type: functional, organism-based; details: Human immunodeficiency virus 1, E138K mutant
[8] = system: Human immunodeficiency virus 1; assay: Antiviral activity against HIV-1 Y181C mutant infected in human MT4 cells assessed as reduction in viral replication by MTT assay; type: functional, organism-based; details: Human immunodeficiency virus 1, Y181C mutant
[9] = system: Human immunodeficiency virus 1; assay: Antiviral activity against HIV-1 Y188L mutant infected in human MT4 cells assessed as reduction in viral replication by MTT assay; type: functional, organism-based; details: Human immunodeficiency virus 1, Y188L mutant
[10] = system: Human immunodeficiency virus 1; assay: Antiviral activity against HIV-1 L100I mutant infected in human MT4 cells assessed as reduction in viral replication by MTT assay; type: functional, organism-based; details: Human immunodeficiency virus 1, L100I mutant
[11] = system: Human immunodeficiency virus 1; assay: Antiviral activity against HIV-1 K103N mutant infected in human MT4 cells assessed as reduction in viral replication by MTT assay; type: functional, organism-based; details: Human immunodeficiency virus 1, K103N mutant
[12] = system: Human immunodeficiency virus 1; assay: Antiviral activity against HIV-1 ROD infected in human MT4 cells assessed as reduction in viral replication by MTT assay; type: functional, organism-based

Structure (SMILES)	pEC50 [1]	selectivity ratio [2]	CC50 [3]	pEC50 [4]	pEC50 [5]	pIC50 [6]	pEC50 [7]	pEC50 [8]	pEC50 [9]	pEC50 [10]	pEC50 [11]	pEC50 [12]
Cc1cc(Oc2c(C(F)(F)F)ccn(Cc3n[nH]c(=O)n3C)c2=O)ccc1-c1cccc(C#N)c1	4.48	118	82.7 µM	< 4.46	6.15	5.82	6.00	5.20	4.41	5.87	5.68	< 4.46
Cc1cc(-c2cc(F)cc(C#N)c2)ccc1Oc1c(C(F)(F)F)ccn(Cc2n[nH]c(=O)n2C)c1=O	5.16	17.6	23.3 µM	< 4.46	5.88	5.27	5.72	5.22	< 4.46	5.72	5.90	< 4.46
Cc1cc(-c2ccc(F)cc2)ccc1Oc1c(C(F)(F)F)ccn(Cc2n[nH]c(=O)n2C)c1=O	< 4.46	5.15	26 µM	< 4.46	5.30	5.27	5.40	< 4.46	< 4.46	5.49	5.47	< 4.46
Cc1cccc(-c2ccc(Oc3c(C(F)(F)F)ccn(Cc4n[nH]c(=O)n4C)c3=O)cc2C)c1	< 4.46	5.43	23.8 µM	< 4.46	5.36	5.18	< 4.46	5.12	< 4.46	5.49	< 4.46	< 4.46
Cn1c(Cn2ccc(C(F)(F)F)c(Oc3cc(C#N)cc(-c4ccc(F)cc4)c3)c2=O)n[nH]c1=O	5.84	> 4840	> 267 µM	< 4.46	7.28	6.96	6.92	6.47	5.45	7.06	7.38	< 4.46
Cn1c(Cn2ccc(C(F)(F)F)c(Oc3cc(C#N)cc(-c4cccc(F)c4)c3)c2=O)n[nH]c1=O	6.51	1270	19.1 µM	< 4.46	7.82	7.25	7.68	7.27	6.08	7.68	7.92	< 4.46
Cn1c(Cn2ccc(C(F)(F)F)c(Oc3cc(C#N)cc(-c4cccc(C#N)c4)c3)c2=O)n[nH]c1=O	6.59	4500	101 µM	< 4.46	7.64	6.68	7.59	6.92	6.44	7.80	7.59	< 4.46
Cn1c(Cn2ccc(C(F)(F)F)c(Oc3ccc(-c4ccc(F)c(C#N)c4)c(F)c3)c2=O)n[nH]c1=O	4.35	78.5	69.5 µM	4.37	6.05	5.95	5.82	4.65	4.38	5.76	5.67	< 4.46
COc1cc(-c2ccc(F)c(C#N)c2)ccc1Oc1c(C(F)(F)F)ccn(Cc2n[nH]c(=O)n2C)c1=O	< 4.46	5.74	102 µM	< 4.46	4.75	4.37	4.66	4.83	< 4.46	5.36	4.95	< 4.46
COc1cc(-c2cc(F)cc(C#N)c2)ccc1Oc1c(C(F)(F)F)ccn(Cc2n[nH]c(=O)n2C)c1=O	< 4.46	10.4	113 µM	< 4.46	4.96	4.56	4.69	4.85	< 4.46	5.11	4.80	< 4.46
Cn1c(Cn2ccc(C(F)(F)F)c(Oc3cc(C#N)cc(-c4ccc(C#N)cc4)c3)c2=O)n[nH]c1=O	5.70	3110	142 µM	< 4.46	7.34	6.28	7.09	6.35	6.21	7.15	7.11	< 4.46
